Test results as given in patent US10759783B2, “Biaryl inhibitors of Bruton'S tyrosine kinase” (BIOGEN MA INC., priority 2013, dated 2020).

Each compound was assayed against T1, BTK enzyme (Homo sapiens, UniProt Q06187) (assay: In vitro BTK kinase assay: BTK-POLYGAT-LS assay). Details: ATP 10 μM, read-out: IC50 (10uMATP).
T1 construct: purchased Upstate 14-552
Type: biochemical
Method: The purpose of the BTK in vitro assay is to determine compound potency against BTK through the measurement of IC50. […] For a typical assay, a 24 μL aliquot of a ATP/peptide master mix (final concentration; ATP 10 μM, polyGAT 100 nM) in kinase buffer (10 mM Tris-HCl pH 7.5, 10 mM MgCl2, 200 μM Na3PO4, 5 mM DTT, 0.01% Triton X-100, and 0.2 mg/ml casein) is added to each well. […] The assay is incubated for 30 minutes before being stopped with 28 μL of a 50 mM EDTA solution. […] The plate is covered and incubated for 45 minutes at room temperature.

T1 sequence (Q06187 whole entry): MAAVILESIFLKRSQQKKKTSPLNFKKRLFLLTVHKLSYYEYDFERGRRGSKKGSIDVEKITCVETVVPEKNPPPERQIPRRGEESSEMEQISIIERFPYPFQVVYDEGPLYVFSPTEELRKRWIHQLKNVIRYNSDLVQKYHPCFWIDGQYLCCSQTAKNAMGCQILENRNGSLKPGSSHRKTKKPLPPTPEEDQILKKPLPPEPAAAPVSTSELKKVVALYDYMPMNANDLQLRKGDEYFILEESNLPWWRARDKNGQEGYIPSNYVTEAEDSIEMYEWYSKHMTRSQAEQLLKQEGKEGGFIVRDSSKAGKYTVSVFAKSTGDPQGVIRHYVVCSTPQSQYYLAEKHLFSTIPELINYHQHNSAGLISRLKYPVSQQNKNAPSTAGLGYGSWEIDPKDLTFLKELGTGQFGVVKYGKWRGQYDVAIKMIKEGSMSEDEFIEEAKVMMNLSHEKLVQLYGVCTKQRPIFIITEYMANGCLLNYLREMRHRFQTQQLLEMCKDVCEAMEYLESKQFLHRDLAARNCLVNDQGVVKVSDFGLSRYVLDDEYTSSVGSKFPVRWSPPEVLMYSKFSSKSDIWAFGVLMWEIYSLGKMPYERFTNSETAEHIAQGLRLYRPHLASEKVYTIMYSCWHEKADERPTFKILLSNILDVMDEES

| Compound | IC50 |
| --- | --- |
| Cc1cc(-c2ccnc(Nc3cnn(C)c3)n2)ccc1CNC(=O)c1ccc(Cl)c(Cl)c1 [Example I-8, 3,4-dichloro-N-(2-methyl-4-(2-((1-methyl-1H-pyrazol-4-yl)amino)pyrimidin-4-yl)benzyl)benzamide] | < 10 nM |
| Cc1cc(-c2ccnc(Nc3cnn(C)c3)n2)ccc1CNC(=O)[C@H]1CC[C@H](C(F)(F)F)CC1 [Example I-11, trans-N-(2-methyl-4-(2-((1-methyl-1H-pyrazol-4-yl)amino)pyrimidin-4-yl)benzyl)-4-(trifluoromethyl)cyclohexanecarboxamide] | 10 to 99 nM |
| Cc1cc(-c2ccnc(Nc3cnn(C)c3)n2)ccc1CNC(=O)c1cc2c(s1)CCNC2C (stereo not drawn) [Example I-14, 4-methyl-N-(2-methyl-4-(2-((1-methyl-1H-pyrazol-4-yl)amino)pyrimidin-4-yl)benzyl)-4,5,6,7-tetrahydrothieno[3,2-c]pyridine-2-carboxamide] | 10 to 99 nM |
| Cc1cc(-c2ccnc(Nc3cnn(C)c3)n2)ccc1CNC(=O)[C@H]1CC[C@@H](C(F)(F)F)CC1 [Example I-17, cis-N-(2-methyl-4-(2-((1-methyl-1H-pyrazol-4-yl)amino)pyrimidin-4-yl)benzyl)-4-(trifluoromethyl)cyclohexanecarboxamide] | 100 to 999 nM |
| Cc1cc(-c2ccnc(Nc3cnn(C)c3)n2)ccc1CNC(=O)NC12CCC(CC1)CC2 [Example I-22, 1-(bicyclo[2.2.2]octan-1-yl)-3-(2-methyl-4-(2-((1-methyl-1H-pyrazol-4-yl)amino)pyrimidin-4-yl)benzyl)urea] | 10 to 99 nM |
| Cc1cc(-c2ccnc(NC3CCN(C)CC3)n2)ccc1CNC(=O)c1cnc(C(C)(C)C)s1 [Example I-25, 2-(tert-butyl)-N-(2-methyl-4-(2-((1-methylpiperidin-4-yl)amino)pyrimidin-4-yl)benzyl)thiazole-5-carboxamide] | 1000 to 10000 nM |
| Cc1cc(-c2ccnc(NC3CCOCC3)n2)ccc1CNC(=O)c1cnc(C(C)(C)C)s1 [Example I-26, 2-(tert-butyl)-N-(2-methyl-4-(2-((tetrahydro-2H-pyran-4-yl)amino)pyrimidin-4-yl)benzyl)thiazole-5-carboxamide] | 1000 to 10000 nM |
| Cc1cc(-c2ccnc(NC(C)c3ccncc3)n2)ccc1CNC(=O)c1cnc(C(C)(C)C)s1 (stereo not drawn) [Example I-29, 2-(tert-butyl)-N-(2-methyl-4-(2-((1-(pyridin-4-yl)ethyl)amino)pyrimidin-4-yl)benzyl)thiazole-5-carboxamide] | 1000 to 10000 nM |
| Cc1cc(-c2ccnc(NCc3ccncc3)n2)ccc1CNC(=O)c1cnc(C(C)(C)C)s1 [Example I-32, 2-(tert-butyl)-N-(2-methyl-4-(2-((pyridin-4-ylmethyl)amino)pyrimidin-4-yl)benzyl)thiazole-5-carboxamide] | 100 to 999 nM |
| CNc1nccc(-c2ccc(CNC(=O)c3cnc(C(C)(C)C)s3)c(C)c2)n1 [Example I-33, 2-(tert-butyl)-N-(2-methyl-4-(2-(methylamino)pyrimidin-4-yl)benzyl)thiazole-5-carboxamide] | 100 to 999 nM |
| CCNc1nccc(-c2ccc(CNC(=O)c3cnc(C(C)(C)C)s3)c(C)c2)n1 [Example I-34, 2-(tert-butyl)-N-(4-(2-(ethylamino)pyrimidin-4-yl)-2-methylbenzyl)thiazole-5-carboxamide] | 10 to 99 nM |
| Cc1cc(-c2ccnc(Nc3c(C)nn(C)c3C)n2)ccc1CNC(=O)c1cnc(C(C)(C)C)s1 [Example I-53, 2-(tert-butyl)-N-(2-methyl-4-(2-((1,3,5-trimethyl-1H-pyrazol-4-yl)amino)pyrimidin-4-yl)benzyl)thiazole-5-carboxamide] | 100 to 999 nM |
| Cc1cc(-c2ccnc(Nc3cn(C)nn3)n2)ccc1CNC(=O)c1cnc(C(C)(C)C)s1 [Example I-58, 2-(tert-butyl)-N-(2-methyl-4-(2-((1-methyl-1H-1,2,3-triazol-4-yl)amino)pyrimidin-4-yl)benzyl)thiazole-5-carboxamide] | 10 to 99 nM |
| Cc1nnc(Nc2nccc(-c3ccc(CNC(=O)c4cnc(C(C)(C)C)s4)c(C)c3)n2)s1 [Example I-59, 2-(tert-butyl)-N-(2-methyl-4-(2-((5-methyl-1,3,4-thiadiazol-2-yl)amino)pyrimidin-4-yl)benzyl)thiazole-5-carboxamide] | 10 to 99 nM |
| Cc1cc(-c2ccnc(Nc3ccccn3)n2)ccc1CNC(=O)c1cnc(C(C)(C)C)s1 [Example I-60, 2-(tert-butyl)-N-(2-methyl-4-(2-(pyridin-2-ylamino)pyrimidin-4-yl)benzyl)thiazole-5-carboxamide] | 10 to 99 nM |
| Cc1cc(-c2ccnc(Nc3ccc(N(C)C)cn3)n2)ccc1CNC(=O)c1cnc(C(C)(C)C)s1 [Example I-61, 2-(tert-butyl)-N-(4-(2-((5-(dimethylamino)pyridin-2-yl)amino)pyrimidin-4-yl)-2-methylbenzyl)thiazole-5-carboxamide] | 10 to 99 nM |

Results, then the compound that gave them:

| IC50 | Compound |
| --- | --- |
| > 10000 nM | Cc1cc(-c2ccnc(Nc3cnn(C)c3)n2)ccc1CNC(=O)C1CCN(C)CC1 [Example I-16, 1-methyl-N-(2-methyl-4-(2-((1-methyl-1H-pyrazol-4-yl)amino)pyrimidin-4-yl)benzyl)piperidine-4-carboxamide] |
| 100 to 999 nM | Cc1cc(-c2ccnc(Nc3cnn(C)c3)n2)ccc1CNC(=O)c1cnoc1C [Example I-18, 5-methyl-N-(2-methyl-4-(2-((1-methyl-1H-pyrazol-4-yl)amino)pyrimidin-4-yl)benzyl)isoxazole-4-carboxamide] |
| > 10000 nM | Cc1cc(-c2ccnc(N[C@H](C)C3CCCCC3)n2)ccc1CNC(=O)c1cnc(C(C)(C)C)s1 [Example I-27, (R)-2-(tert-butyl)-N-(4-(2-((1-cyclohexylethyl)amino)pyrimidin-4-yl)-2-methylbenzyl)thiazole-5-carboxamide] |
| > 10000 nM | Cc1cc(-c2ccnc(N[C@@H](C)C3CCCCC3)n2)ccc1CNC(=O)c1cnc(C(C)(C)C)s1 [Example I-28, (S)-2-(tert-butyl)-N-(4-(2-((1-cyclohexylethyl)amino)pyrimidin-4-yl)-2-methylbenzyl)thiazole-5-carboxamide] |
| 1000 to 10000 nM | Cc1cc(-c2ccnc(NC3CCS(=O)(=O)CC3)n2)ccc1CNC(=O)c1cnc(C(C)(C)C)s1 [Example I-30, 2-(tert-butyl)-N-(4-(2-((1,1-dioxidotetrahydro-2H-thiopyran-4-yl)amino)pyrimidin-4-yl)-2-methylbenzyl)thiazole-5-carboxamide] |
| 100 to 999 nM | Cc1cc(-c2ccnc(NCC3CCS(=O)(=O)CC3)n2)ccc1CNC(=O)c1cnc(C(C)(C)C)s1 [Example I-31, 2-(tert-butyl)-N-(4-(2-(((1,1-dioxidotetrahydro-2H-thiopyran-4-yl)methyl)amino)pyrimidin-4-yl)-2-methylbenzyl)thiazole-5-carboxamide] |
| 1000 to 10000 nM | Cc1cc(-c2ccnc(NC(C)C)n2)ccc1CNC(=O)c1cnc(C(C)(C)C)s1 [Example I-35, 2-(tert-butyl)-N-(4-(2-(isopropylamino)pyrimidin-4-yl)-2-methylbenzyl)thiazole-5-carboxamide] |
| < 10 nM | Cc1cc(-c2ccnc(Nc3conc3C)n2)ccc1CNC(=O)c1cnc(C(C)(C)C)s1 [Example I-57, 2-(tert-butyl)-N-(2-methyl-4-(2-((3-methylisoxazol-4-yl)amino)pyrimidin-4-yl)benzyl)thiazole-5-carboxamide] |
